Key:
[1] = system: synaptic transmission in acute cortical brain slices; assay: Whole cell EPSC measurements in layer 2 pyramidal neurons in acute brain slices; assay type: cell-based, mice
Excerpt: We further characterized CID-dependent inactivation of synaptic transmission using whole cell measurements of EPSC in layer (L) 2 pyramidal neurons in acute brain slices. MIST constructs were introduced into L 3 cells in vivo using in utero viral vector mediated gene delivery (VAMP/Syb MIST) or electroporation (Sph-StxTM MIST). Synaptic transmission was evoked with an extracellular stimulation electrode placed in a band of transfected/infected neurons, below (within 200 μm) the recording pipette.
Cortical brain slices (300 μm thick) were prepared from young mice (postnatal day 9-14) using a vibrating-blade microtome (VT1000S, Leica Microsystems). Chilled cutting solution contained 110 mM choline chloride, 25 mM NaHCO3, 25 mM D-glucose, 11.6 mM sodium ascorbate, 7 mM MgSO4, 3.1 mM sodium pyruvate, 2.5 mM KCl, 1.25 mM NaH2PO4, and 0.5 mM CaCl2. Slices were then transferred to artificial cerebrospinal fluid (“ACSF”) containing 127 mM NaCl, 25 mM NaHCO3, 25 mM D-glucose, 2.5 mM KCl, 2 mM MgCl2,1 mM CaCl2, and 1.25 mM NaH2PO4, aerated with 95% O2/5% CO2. Slices in ACSF were first incubated at 34° C. for 0.5 hr, then maintained at room temperature prior to use. For recordings, ACSF contained 4 mM MgCl2, 4 mM CaCl2 and […] CPP.
Neurons were visualized with infrared differential interference contrast optics, and patched using borosilicate electrodes (resistances, 4-7 MΩ). Access resistances were in the range 10-30 MΩ. Intracellular solution contained 120 mM CsMeSO3, 20 mM CsCl, 4 mM NaCl, 10 mM HEPES, 10 mM BAPTA, 4 mM Mg2ATP, and 0.3 mM Na2GTP, 14 mM sodium phosphocreatine, 3 mM ascorbate, and 0.1 Alexa-594 (Molecular Probes); pH was adjusted to 7.25 with CsOH. Excitatory currents were measured at a holding potential of −65 mV, close to reversal for fast inhibition. MIST-expressing neurons were stimulated with tungsten bipolar electrode in the middle of transfected region, and monosynaptic responses were recorded from cells within […]. Responses were amplified (Multiclamp, Axon Instruments), filtered at 1 kHz, and digitized at 10 kHz. […]

[2] = system: synaptic transmission of cortical neurons in cultured brain slices; assay: Evoked EPSCs in cultured brain slices infected with adenovirus-based VAMP MIST construct; assay type: cell-based
Excerpt: We first tested the VAMP MIST construct in cultured brain slices. The adenovirus-based VAMP MIST construct was used to infect cortical neurons in cultured brain slices. Synaptic transmission was evoked with extracellular stimulation.

Molecule: AP21967
- amplitude of monosynaptic EPSCs ([1]; bath application 500 nM AP21967, Sph-StxTM MIST): rapid decrease

Molecule: CC[C@H](C(=O)N1CCCC[C@H]1C(=O)O[C@H](CCc1ccc(OC)c(OC)c1)c1cccc(OCC(=O)NCC(CNC(=O)COc2cccc([C@@H](CCc3ccc(OC)c(OC)c3)OC(=O)[C@@H]3CCCCN3C(=O)[C@@H](CC)c3cc(OC)c(OC)c(OC)c3)c2)CN(C)C)c1)c1cc(OC)c(OC)c(OC)c1 [AP20187]
- amplitudes of monosynaptic EPSC and network discharge ([2]; 20 nM AP20187 in DMSO added to the bath, VAMP MIST infected slices): rapid decrease
- amplitude of monosynaptic EPSCs ([1]; bath application 100 nM AP20187, VAMP/Syb MIST): rapid decrease

Molecule: CC[C@H](C(=O)N1CCCCC1C(=O)O[C@H](CCc1ccc(OC)c(OC)c1)c1cccc(OCC(=O)NCCCN(C)C)c1)c1cc(OC)c(OC)c(OC)c1 (some centres unmarked) [AP21998]
- recovery of monosynaptic EPSC and network discharge ([2]; 200 nM AP21998 reverser after homodimerizer): rapid recovery
- recovery of synaptic response with reverser ([1]; excess of monomeric reverser, 5 μM AP21998): rapid partial recovery
